PubChem BioAssay (NCI)
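The compound was tested at five concentrations on cells cultured in 96-well plates, with a 48-hour exposure period. Here, GI50 denotes the concentration required for 50% inhibition of growth. At the TGI there is no net growth.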

How the values were obtained:
Experiment in all cases: NCI tumour cell line growth inhibition, 48 h
SK-OV-3 ovarian = test system: SK-OV-3 ovarian
CCRF-CEM leukemia = test system: CCRF-CEM leukemia
MCF7 breast = test system: MCF7 breast
SK-MEL-28 melanoma = test system: SK-MEL-28 melanoma
UACC-257 melanoma = test system: UACC-257 melanoma
U251 CNS = test system: U251 CNS
SK-MEL-2 melanoma = test system: SK-MEL-2 melanoma
BT-549 breast = test system: BT-549 breast
SF-539 CNS = test system: SF-539 CNS
SN12C renal = test system: SN12C renal
HOP-92 NSCLC = test system: HOP-92 NSCLC
OVCAR-5 ovarian = test system: OVCAR-5 ovarian
CAKI-1 renal = test system: CAKI-1 renal
OVCAR-8 ovarian = test system: OVCAR-8 ovarian
MOLT-4 leukemia = test system: MOLT-4 leukemia
HS 578T breast = test system: HS 578T breast
HT29 colon = test system: HT29 colon
HCC-2998 colon = test system: HCC-2998 colon
RPMI-8226 leukemia = test system: RPMI-8226 leukemia
T-47D breast = test system: T-47D breast
KM12 colon = test system: KM12 colon
RXF 393 renal = test system: RXF 393 renal
SNB-75 CNS = test system: SNB-75 CNS
OVCAR-3 ovarian = test system: OVCAR-3 ovarian
UO-31 renal = test system: UO-31 renal
NCI-H522 lung = test system: NCI-H522 lung
MALME-3M melanoma = test system: MALME-3M melanoma
A549 NSCLC = test system: A549 NSCLC
UACC-62 melanoma = test system: UACC-62 melanoma
SNB-19 CNS = test system: SNB-19 CNS
NCI-H460 lung = test system: NCI-H460 lung
COLO 205 colon = test system: COLO 205 colon
SK-MEL-5 melanoma = test system: SK-MEL-5 melanoma
NCI/ADR-RES ovarian = test system: NCI/ADR-RES ovarian
NCI-H23 lung = test system: NCI-H23 lung
786-0 renal = test system: 786-0 renal
K-562 leukemia = test system: K-562 leukemia
M14 melanoma = test system: M14 melanoma
HCT-15 colon = test system: HCT-15 colon
A498 renal = test system: A498 renal
MDA-MB-435 = test system: MDA-MB-435
MDA-MB-231 breast = test system: MDA-MB-231 breast
HOP-62 NSCLC = test system: HOP-62 NSCLC
EKVX NSCLC = test system: EKVX NSCLC
SF-295 CNS = test system: SF-295 CNS
LOX IMVI melanoma = test system: LOX IMVI melanoma
SR leukemia = test system: SR leukemia
DU-145 prostate = test system: DU-145 prostate
SW-620 colon = test system: SW-620 colon
SF-268 CNS = test system: SF-268 CNS
PC-3 prostate = test system: PC-3 prostate
ACHN renal = test system: ACHN renal
NCI-H226 lung = test system: NCI-H226 lung
HL-60(TB) leukemia = test system: HL-60(TB) leukemia
IGROV1 ovarian = test system: IGROV1 ovarian
HCT-116 colon = test system: HCT-116 colon
OVCAR-4 ovarian = test system: OVCAR-4 ovarian
TK-10 renal = test system: TK-10 renal

O=C(Nc1ccccc1C(=O)O)C(=Cc1ccccc1O)NC(=O)c1ccccc1
TGI (SK-OV-3 ovarian): > 100000 nM
TGI (CCRF-CEM leukemia): > 100000 nM
TGI (MCF7 breast): > 100000 nM
TGI (SK-MEL-28 melanoma): > 100000 nM
TGI (UACC-257 melanoma): > 100000 nM
TGI (U251 CNS): > 100000 nM
TGI (SK-MEL-2 melanoma): > 100000 nM
TGI (BT-549 breast): > 100000 nM
TGI (SF-539 CNS): > 100000 nM
TGI (SN12C renal): > 100000 nM
TGI (HOP-92 NSCLC): > 100000 nM
TGI (OVCAR-5 ovarian): > 100000 nM
TGI (CAKI-1 renal): > 100000 nM
TGI (OVCAR-8 ovarian): > 100000 nM
TGI (MOLT-4 leukemia): > 100000 nM
TGI (HS 578T breast): > 100000 nM
TGI (HT29 colon): > 100000 nM
TGI (HCC-2998 colon): > 100000 nM
TGI (RPMI-8226 leukemia): > 100000 nM
TGI (T-47D breast): > 100000 nM
TGI (KM12 colon): > 100000 nM
TGI (RXF 393 renal): > 100000 nM
TGI (SNB-75 CNS): > 100000 nM
TGI (OVCAR-3 ovarian): > 100000 nM
TGI (UO-31 renal): > 100000 nM
TGI (NCI-H522 lung): > 100000 nM
TGI (MALME-3M melanoma): > 100000 nM
TGI (A549 NSCLC): > 100000 nM
TGI (UACC-62 melanoma): > 100000 nM
TGI (SNB-19 CNS): > 100000 nM
TGI (NCI-H460 lung): > 100000 nM
TGI (COLO 205 colon): > 100000 nM
TGI (SK-MEL-5 melanoma): > 100000 nM
TGI (NCI/ADR-RES ovarian): > 100000 nM
TGI (NCI-H23 lung): > 100000 nM
TGI (786-0 renal): > 100000 nM
TGI (K-562 leukemia): > 100000 nM
TGI (M14 melanoma): > 100000 nM
TGI (HCT-15 colon): > 100000 nM
TGI (A498 renal): > 100000 nM
TGI (MDA-MB-435): > 100000 nM
TGI (MDA-MB-231 breast): > 100000 nM
TGI (HOP-62 NSCLC): > 100000 nM
TGI (EKVX NSCLC): > 100000 nM
TGI (SF-295 CNS): > 100000 nM
TGI (LOX IMVI melanoma): > 100000 nM
TGI (SR leukemia): > 100000 nM
TGI (DU-145 prostate): > 100000 nM
TGI (SW-620 colon): > 100000 nM
TGI (SF-268 CNS): > 100000 nM
TGI (PC-3 prostate): > 100000 nM
TGI (ACHN renal): > 100000 nM
TGI (NCI-H226 lung): > 100000 nM
TGI (HL-60(TB) leukemia): > 100000 nM
TGI (IGROV1 ovarian): > 100000 nM
TGI (HCT-116 colon): > 100000 nM

CO[C@H]1/C=C/C=C/C=C/C[C@H](OC(=O)[C@@H](C)NC(=O)C2CCCCC2)[C@H](C)[C@@H](O)/C(C)=C\CCC2=CC(=O)C=C(NC(=O)C1)C2=O
GI50 (SK-OV-3 ovarian): 187 nM
TGI (SK-OV-3 ovarian): 1830 nM
GI50 (CCRF-CEM leukemia): 114 nM
TGI (CCRF-CEM leukemia): > 50000 nM
GI50 (MCF7 breast): 130 nM
TGI (MCF7 breast): 3540 nM
GI50 (SK-MEL-28 melanoma): 102 nM
TGI (SK-MEL-28 melanoma): 490 nM
GI50 (U251 CNS): 98.5 nM
TGI (U251 CNS): 953 nM
GI50 (SK-MEL-2 melanoma): 131 nM
TGI (SK-MEL-2 melanoma): 715 nM
GI50 (BT-549 breast): 172 nM
TGI (BT-549 breast): 1380 nM
GI50 (SF-539 CNS): 128 nM
TGI (SF-539 CNS): 519 nM
GI50 (SN12C renal): 106 nM
TGI (SN12C renal): 556 nM
GI50 (HOP-92 NSCLC): 162 nM
TGI (HOP-92 NSCLC): 1980 nM
GI50 (OVCAR-5 ovarian): 324 nM
TGI (OVCAR-5 ovarian): 2890 nM
GI50 (OVCAR-8 ovarian): 194 nM
TGI (OVCAR-8 ovarian): 1570 nM
GI50 (MOLT-4 leukemia): 142 nM
TGI (MOLT-4 leukemia): 7040 nM
GI50 (HS 578T breast): 119 nM
TGI (HS 578T breast): 590 nM
GI50 (HT29 colon): 80.1 nM
TGI (HT29 colon): 513 nM
GI50 (HCC-2998 colon): 109 nM
TGI (HCC-2998 colon): 762 nM
GI50 (RPMI-8226 leukemia): 111 nM
TGI (RPMI-8226 leukemia): 327 nM
GI50 (T-47D breast): 105 nM
TGI (T-47D breast): 1060 nM
GI50 (KM12 colon): 131 nM
TGI (KM12 colon): 10100 nM
GI50 (RXF 393 renal): 94.5 nM
TGI (RXF 393 renal): 346 nM
GI50 (SNB-75 CNS): 83.2 nM
TGI (SNB-75 CNS): 1700 nM
GI50 (OVCAR-3 ovarian): 154 nM
TGI (OVCAR-3 ovarian): 997 nM
GI50 (UO-31 renal): 352 nM
TGI (UO-31 renal): 2790 nM
GI50 (NCI-H522 lung): 104 nM
TGI (NCI-H522 lung): 823 nM
GI50 (MALME-3M melanoma): 113 nM
TGI (MALME-3M melanoma): 801 nM
GI50 (A549 NSCLC): 188 nM
TGI (A549 NSCLC): 1920 nM
GI50 (UACC-62 melanoma): 80.1 nM
TGI (UACC-62 melanoma): 682 nM
GI50 (OVCAR-4 ovarian): 225 nM
TGI (OVCAR-4 ovarian): 2840 nM
GI50 (SNB-19 CNS): 106 nM
TGI (SNB-19 CNS): 563 nM
GI50 (NCI-H460 lung): 111 nM
TGI (NCI-H460 lung): 1140 nM
GI50 (COLO 205 colon): 116 nM
TGI (COLO 205 colon): 736 nM
GI50 (SK-MEL-5 melanoma): 84.5 nM
TGI (SK-MEL-5 melanoma): 521 nM
GI50 (TK-10 renal): 274 nM
TGI (TK-10 renal): 2310 nM
GI50 (NCI/ADR-RES ovarian): 4000 nM
TGI (NCI/ADR-RES ovarian): > 50000 nM
GI50 (NCI-H23 lung): 115 nM
TGI (NCI-H23 lung): 812 nM
GI50 (786-0 renal): 177 nM
TGI (786-0 renal): 1320 nM
GI50 (K-562 leukemia): 177 nM
TGI (K-562 leukemia): > 50000 nM
GI50 (M14 melanoma): 119 nM
TGI (M14 melanoma): 746 nM
GI50 (HCT-15 colon): 336 nM
TGI (HCT-15 colon): 5570 nM
GI50 (A498 renal): 282 nM
TGI (A498 renal): 2330 nM
GI50 (MDA-MB-435): 154 nM
TGI (MDA-MB-435): 989 nM
GI50 (MDA-MB-231 breast): 137 nM
TGI (MDA-MB-231 breast): 934 nM
GI50 (HOP-62 NSCLC): 125 nM
TGI (HOP-62 NSCLC): 680 nM
GI50 (EKVX NSCLC): 174 nM
TGI (EKVX NSCLC): 2250 nM
GI50 (SF-295 CNS): 124 nM
TGI (SF-295 CNS): 966 nM
GI50 (LOX IMVI melanoma): 104 nM
TGI (LOX IMVI melanoma): 547 nM
GI50 (SR leukemia): 56.1 nM
TGI (SR leukemia): > 50000 nM
GI50 (DU-145 prostate): 127 nM
TGI (DU-145 prostate): 1400 nM
GI50 (SW-620 colon): 179 nM
TGI (SW-620 colon): 3630 nM
GI50 (SF-268 CNS): 123 nM
TGI (SF-268 CNS): 1010 nM
GI50 (PC-3 prostate): 128 nM
TGI (PC-3 prostate): 896 nM
GI50 (ACHN renal): 223 nM
TGI (ACHN renal): 1310 nM
GI50 (NCI-H226 lung): 157 nM
TGI (NCI-H226 lung): 797 nM
GI50 (HL-60(TB) leukemia): 167 nM
TGI (HL-60(TB) leukemia): 839 nM
GI50 (IGROV1 ovarian): 94.1 nM
TGI (IGROV1 ovarian): 1280 nM
GI50 (HCT-116 colon): 47.2 nM
TGI (HCT-116 colon): 738 nM
